Laboratory results: publication PMC10894229, “Novel antimicrobial peptides against Cutibacterium acnes designed by deep learning” (Scientific Reports, 2024)
Where two headings read alike, the source gives them in different places.

Test system: C. acnes (BNCC 336649)
Conditions: for Concentration with antimicrobial activity >50%: C. acnes; for Concentration with antimicrobial activity >50% / Category of in vitro test antimicrobial activity against C. acnes: supplementary Table 5; for Antimicrobial activity > 50% against C. acnes: broth microdilution, 48 h, OD 630 nm
Description: The strain of C. acnes (BNCC 336649) was cultured in Wilkins-Chalgren Anaerobe Broth (QingDao RiShui Bio-technologies, 11071) at 37 °C under an anaerobic atmosphere performed by a Labiophy HL-B automatic hypoxic workstation (Dalian, Liaoning Province, Labiophy HL-B), inflated with a gas mix of 15% carbon dioxide, 83% nitrogen, and 2% hydrogen.
Logarithmic phase growth bacteria were used for antimicrobial testing.
To determine the MIC values, the broth microdilution method was used. […] Briefly, peptide samples were prepared as a stock solution in water and then diluted. 180 μL of the bacterial suspension (10^7 CFU/mL) and 20 μL of the tested sample were added together into 96-Well Deep Well Plates and incubated 24 h for E. coli and S. aureus or 48 h for C. acnes and C. albicans. For each test, two columns of the plate were kept for sterility control (broth only) and growth control (broth with bacterial inoculums, no antibiotics). The optical density of cultures was measured at 630 nm by a microplate reader (SYNERGY-H1, BioTek, USA) to estimate bacterial growth. All experiments were conducted in triplicate. We used ciprofloxacin (CPFX) as the antibiotic control for antimicrobial testing.

KALAATVKKVAKLIK [AMP-34]
Concentration with antimicrobial activity >50%: no | Antimicrobial activity > 50% against C. acnes (at 25 µg/mL): No (A peptide was deemed to have antimicrobial activity if C. acnes growth was inhibited by more than 50% at a given concentration) | Antimicrobial activity > 50% against C. acnes (at 50 µg/mL): No (A peptide was deemed to have antimicrobial activity if C. acnes growth was inhibited by more than 50% at a given concentration) | Antimicrobial activity > 50% against C. acnes (at 100 µg/mL): No (A peptide was deemed to have antimicrobial activity if C. acnes growth was inhibited by more than 50% at a given concentration) | Category of in vitro test antimicrobial activity against C. acnes: No AMP

KIAKRLAKKILNAI [AMP-10]
Concentration with antimicrobial activity >50%: 12.5 µg/mL | Antimicrobial activity > 50% against C. acnes (at 25 µg/mL): Inhibit (A peptide was deemed to have antimicrobial activity if C. acnes growth was inhibited by more than 50% at a given concentration) | Antimicrobial activity > 50% against C. acnes (at 50 µg/mL): Inhibit (A peptide was deemed to have antimicrobial activity if C. acnes growth was inhibited by more than 50% at a given concentration) | Antimicrobial activity > 50% against C. acnes (at 100 µg/mL): Inhibit (A peptide was deemed to have antimicrobial activity if C. acnes growth was inhibited by more than 50% at a given concentration) | Category of in vitro test antimicrobial activity against C. acnes: Strong AMP

KIFWRVAKSLFKSY [AMP-30]
Concentration with antimicrobial activity >50%: 100 µg/mL | Antimicrobial activity > 50% against C. acnes (at 25 µg/mL): No (A peptide was deemed to have antimicrobial activity if C. acnes growth was inhibited by more than 50% at a given concentration) | Antimicrobial activity > 50% against C. acnes (at 50 µg/mL): No (A peptide was deemed to have antimicrobial activity if C. acnes growth was inhibited by more than 50% at a given concentration) | Antimicrobial activity > 50% against C. acnes (at 100 µg/mL): Inhibit (A peptide was deemed to have antimicrobial activity if C. acnes growth was inhibited by more than 50% at a given concentration) | Category of in vitro test antimicrobial activity against C. acnes: Weak AMP

KKLAGLAKKWWKPLR [AMP-22]
Antimicrobial activity > 50% against C. acnes (at 25 µg/mL): No (A peptide was deemed to have antimicrobial activity if C. acnes growth was inhibited by more than 50% at a given concentration) | Antimicrobial activity > 50% against C. acnes (at 50 µg/mL): Inhibit (A peptide was deemed to have antimicrobial activity if C. acnes growth was inhibited by more than 50% at a given concentration) | Antimicrobial activity > 50% against C. acnes (at 100 µg/mL): Inhibit (A peptide was deemed to have antimicrobial activity if C. acnes growth was inhibited by more than 50% at a given concentration) | Category of in vitro test antimicrobial activity against C. acnes: Medium AMP

KKLAGLAWKALRKAK [AMP-6]
Concentration with antimicrobial activity >50%: 100 µg/mL | Antimicrobial activity > 50% against C. acnes (at 25 µg/mL): No (A peptide was deemed to have antimicrobial activity if C. acnes growth was inhibited by more than 50% at a given concentration) | Antimicrobial activity > 50% against C. acnes (at 50 µg/mL): No (A peptide was deemed to have antimicrobial activity if C. acnes growth was inhibited by more than 50% at a given concentration) | Antimicrobial activity > 50% against C. acnes (at 100 µg/mL): Inhibit (A peptide was deemed to have antimicrobial activity if C. acnes growth was inhibited by more than 50% at a given concentration) | Category of in vitro test antimicrobial activity against C. acnes: Weak AMP

KLVKRVLKKLRKLF [AMP-8]
Antimicrobial activity > 50% against C. acnes (at 25 µg/mL): Inhibit (A peptide was deemed to have antimicrobial activity if C. acnes growth was inhibited by more than 50% at a given concentration) | Antimicrobial activity > 50% against C. acnes (at 50 µg/mL): Inhibit (A peptide was deemed to have antimicrobial activity if C. acnes growth was inhibited by more than 50% at a given concentration) | Antimicrobial activity > 50% against C. acnes (at 100 µg/mL): Inhibit (A peptide was deemed to have antimicrobial activity if C. acnes growth was inhibited by more than 50% at a given concentration) | Category of in vitro test antimicrobial activity against C. acnes: Strong AMP

KRIGSILGRWLHLAK [AMP-2]
Concentration with antimicrobial activity >50%: 25 µg/mL | Antimicrobial activity > 50% against C. acnes (at 25 µg/mL): Inhibit (A peptide was deemed to have antimicrobial activity if C. acnes growth was inhibited by more than 50% at a given concentration) | Antimicrobial activity > 50% against C. acnes (at 50 µg/mL): Inhibit (A peptide was deemed to have antimicrobial activity if C. acnes growth was inhibited by more than 50% at a given concentration) | Antimicrobial activity > 50% against C. acnes (at 100 µg/mL): Inhibit (A peptide was deemed to have antimicrobial activity if C. acnes growth was inhibited by more than 50% at a given concentration) | Category of in vitro test antimicrobial activity against C. acnes: Medium AMP

KRLIKWLNVAKKVV [AMP-3]
Concentration with antimicrobial activity >50%: 100 µg/mL | Antimicrobial activity > 50% against C. acnes (at 25 µg/mL): No (A peptide was deemed to have antimicrobial activity if C. acnes growth was inhibited by more than 50% at a given concentration) | Antimicrobial activity > 50% against C. acnes (at 50 µg/mL): No (A peptide was deemed to have antimicrobial activity if C. acnes growth was inhibited by more than 50% at a given concentration) | Antimicrobial activity > 50% against C. acnes (at 100 µg/mL): Inhibit (A peptide was deemed to have antimicrobial activity if C. acnes growth was inhibited by more than 50% at a given concentration) | Category of in vitro test antimicrobial activity against C. acnes: Weak AMP

LLSLIRRTVARLKKA [AMP-18]
Concentration with antimicrobial activity >50%: 25 µg/mL | Antimicrobial activity > 50% against C. acnes (at 25 µg/mL): Inhibit (A peptide was deemed to have antimicrobial activity if C. acnes growth was inhibited by more than 50% at a given concentration) | Antimicrobial activity > 50% against C. acnes (at 50 µg/mL): Inhibit (A peptide was deemed to have antimicrobial activity if C. acnes growth was inhibited by more than 50% at a given concentration) | Antimicrobial activity > 50% against C. acnes (at 100 µg/mL): Inhibit (A peptide was deemed to have antimicrobial activity if C. acnes growth was inhibited by more than 50% at a given concentration) | Category of in vitro test antimicrobial activity against C. acnes: Medium AMP

LQLLKQFRKVLKKLS [AMP-13]
Concentration with antimicrobial activity >50%: 25 µg/mL | Antimicrobial activity > 50% against C. acnes (at 25 µg/mL): Inhibit (A peptide was deemed to have antimicrobial activity if C. acnes growth was inhibited by more than 50% at a given concentration) | Antimicrobial activity > 50% against C. acnes (at 50 µg/mL): Inhibit (A peptide was deemed to have antimicrobial activity if C. acnes growth was inhibited by more than 50% at a given concentration) | Antimicrobial activity > 50% against C. acnes (at 100 µg/mL): Inhibit (A peptide was deemed to have antimicrobial activity if C. acnes growth was inhibited by more than 50% at a given concentration) | Category of in vitro test antimicrobial activity against C. acnes: Medium AMP

NRWLKAAKVAAKVI [AMP-36]
Concentration with antimicrobial activity >50%: no | Antimicrobial activity > 50% against C. acnes (at 25 µg/mL): No (A peptide was deemed to have antimicrobial activity if C. acnes growth was inhibited by more than 50% at a given concentration) | Antimicrobial activity > 50% against C. acnes (at 50 µg/mL): No (A peptide was deemed to have antimicrobial activity if C. acnes growth was inhibited by more than 50% at a given concentration) | Antimicrobial activity > 50% against C. acnes (at 100 µg/mL): No (A peptide was deemed to have antimicrobial activity if C. acnes growth was inhibited by more than 50% at a given concentration) | Category of in vitro test antimicrobial activity against C. acnes: No AMP

RISSLLKRLAIKIK [AMP-16]
Concentration with antimicrobial activity >50%: 25 µg/mL | Antimicrobial activity > 50% against C. acnes (at 25 µg/mL): Inhibit (A peptide was deemed to have antimicrobial activity if C. acnes growth was inhibited by more than 50% at a given concentration) | Antimicrobial activity > 50% against C. acnes (at 50 µg/mL): Inhibit (A peptide was deemed to have antimicrobial activity if C. acnes growth was inhibited by more than 50% at a given concentration) | Antimicrobial activity > 50% against C. acnes (at 100 µg/mL): Inhibit (A peptide was deemed to have antimicrobial activity if C. acnes growth was inhibited by more than 50% at a given concentration) | Category of in vitro test antimicrobial activity against C. acnes: Medium AMP

SKILGKLTKAAKIAW [AMP-28]
Concentration with antimicrobial activity >50%: no | Antimicrobial activity > 50% against C. acnes (at 25 µg/mL): No (A peptide was deemed to have antimicrobial activity if C. acnes growth was inhibited by more than 50% at a given concentration) | Antimicrobial activity > 50% against C. acnes (at 50 µg/mL): No (A peptide was deemed to have antimicrobial activity if C. acnes growth was inhibited by more than 50% at a given concentration) | Antimicrobial activity > 50% against C. acnes (at 100 µg/mL): No (A peptide was deemed to have antimicrobial activity if C. acnes growth was inhibited by more than 50% at a given concentration) | Category of in vitro test antimicrobial activity against C. acnes: No AMP

VKRILKWAFK [AMP-1]
Antimicrobial activity > 50% against C. acnes (at 25 µg/mL): No (A peptide was deemed to have antimicrobial activity if C. acnes growth was inhibited by more than 50% at a given concentration) | Antimicrobial activity > 50% against C. acnes (at 50 µg/mL): Inhibit (A peptide was deemed to have antimicrobial activity if C. acnes growth was inhibited by more than 50% at a given concentration) | Antimicrobial activity > 50% against C. acnes (at 100 µg/mL): Inhibit (A peptide was deemed to have antimicrobial activity if C. acnes growth was inhibited by more than 50% at a given concentration) | Category of in vitro test antimicrobial activity against C. acnes: Medium AMP
